These results are taken from US7462599B2, “Use of effectors of glutaminyl and glutamate cyclases” (Probiodrug AG, priority 2003, dated 2008).

Where “and” joins values, the source holds several entries; their conditions need not be identical. Equal entries are not always repeated. Bridge positions count the residues as written; N and C are the ends. Square brackets hold non-standard residues; d marks the D form. Ends that are not written are not given here. Peptide text beside a SMILES is read from it. β3hQ = NC(=O)CC[C@H](N)CC(=O)O

How the values of data set [1] were obtained:
H-Glu(OMe)-βNA and H-Glu-βNA. […] These fluorogenic substrates were analyzed fluorometrically, utilizing pyroglutamyl aminopeptidase as auxiliary enzyme.

Data set [2] concerns the target T1, QC (Homo sapiens, UniProt Q16769). In words: Fluorometric QC assay with pyroglutamyl aminopeptidase as auxiliary enzyme, human QC. Format: biochemical. On the set-up: The cDNA of the mature QC starting with codon 38 was fused in frame with the plasmid encoded 6× histidine tag; 6x histidine tag; made in house; host or cells: Pichia pastoris X33 (pPICZαB); also E. coli M15 (pQE-31). The conditions noted are these: for conversion by human QC: analyzed fluorometrically; for inhibition of human QC by the peptide: H-Gln-AMC as substrate. From the text:
Excitation/emission wavelengths were 320/410 nm.
H-Glu(OMe)-βNA and H-Glu-βNA.

Data set [3] has as its target T1, QC. In words: Continuous spectrophotometric assay of substrate conversion, human QC.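 As to all read-outs here: initial rates read at 30 °C in a microplate reader, with activity quantified against an ammonia calibration curve under the same assay conditions.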 Type of data set: biochemical. More on the design: The cDNA of the mature QC starting with codon 38 was fused in frame with the plasmid encoded 6× histidine tag; 6x histidine tag; made in house; host or cells: Pichia pastoris X33 (pPICZαB); also E. coli M15 (pQE-31). The settings on record: for Ki / Ki*: n.i. = no inhibition; for Ki*: for substrate inhibition.
Experimental: The initial velocities were evaluated and the enzymatic activity was determined from a standard curve of ammonia under assay conditions. All samples were measured at 30° C., using either the [sequence]luor Plus or the Sunrise (both from TECAN) reader for microplates. Kinetic data was evaluated using GraFit software.

Data set [4] addresses T1, QC. Kind of data set: Enzyme inactivation/reactivation of human QC. Type of data set: biochemical. On the set-up: The cDNA of the mature QC starting with codon 38 was fused in frame with the plasmid encoded 6× histidine tag; 6x histidine tag; made in house; host or cells: Pichia pastoris X33 (pPICZαB); also E. coli M15 (pQE-31).
Data set [5] relates to mammalian QC. The settings on record: Busby et al. 1987; cited from earlier work.
Data set [6] addresses T1, QC. In words: Inhibitor assay, human QC catalyzed reaction (Ki determination). Format: biochemical. More on the design: The cDNA of the mature QC starting with codon 38 was fused in frame with the plasmid encoded 6× histidine tag; 6x histidine tag; made in house; host or cells: Pichia pastoris X33 (pPICZαB); also E. coli M15 (pQE-31).
Data set [7] concerns the target T1, QC. In words: Discontinuous method for QC kinetic parameters. Format: biochemical.
Where [8] appears, read: 0.05 M Tris-HCl, pH 8.0, 0.5 M KCl.
Where [9] appears, read: recombinant human QC, buffer containing 1% DMSO.

T1 sequence (Q16769 29-361): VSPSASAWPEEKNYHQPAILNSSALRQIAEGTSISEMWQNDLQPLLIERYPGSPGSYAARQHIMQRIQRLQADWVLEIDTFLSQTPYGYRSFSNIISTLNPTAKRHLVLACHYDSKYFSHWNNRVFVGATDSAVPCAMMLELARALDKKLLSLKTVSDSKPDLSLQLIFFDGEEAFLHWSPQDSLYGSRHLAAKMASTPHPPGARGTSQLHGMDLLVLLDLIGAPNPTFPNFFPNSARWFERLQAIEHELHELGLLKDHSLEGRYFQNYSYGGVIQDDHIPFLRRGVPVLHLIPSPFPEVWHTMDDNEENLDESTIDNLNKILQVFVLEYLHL

Regarding `N[C@@H](CCC(=O)O)C(=O)Nc1ccc2ccccc2c1` [Glu-βNA, H-Glu-βNA], the “limiting rate constant for nonenzymatic turnover (estimate, no product formed)” value in data set [1] (pH 6.0, 4 weeks) is not above 1e-09 s⁻¹. Moreover, the “conversion by human QC” value in data set [2] is “Neither of these compounds were converted”.

For the molecule `NC(=O)CC[C@H](N)C(=O)Nc1ccc2ccccc2c1` [H-Gln-βNA], in data set [1] (pH 6.0, followed for 4 weeks), the “first-order rate constant of nonenzymatic pGlu-formation” value is 1.2*10^−7 s^−1. In addition, the kcat (as a rule, the maximal rate divided by the concentration of active sites) in data set [3] was 20.6 ± 0.5 s⁻¹; in data set [3] (pH 8), 21.7 ± 0.5 s⁻¹ and 20.0 ± 0.4 s⁻¹.

Take “[Gln^1]-GnRH: GnRH with N-terminal glutamine: QHWSYGL RP(G) amide”: in data set [3] (Table 1), the Michaelis constant (Km) (commonly the concentration of substrate that gives half-maximal velocity) was 53 ± 3 µM and the kcat was 69.2 ± 1.1 s⁻¹.

Regarding `O=S(=O)([O-])[O-].[Zn+2]` [ZnSO4], the “restoration of QC activity after inactivation” value in data set [4] (metal ion incubation in presence of 0.5 mM EDTA) is recorded as “Near-total restoration”.

Regarding reduced 6-methylpterin, in data set [5], the “inhibition of mammalian QC” value is on record as “Inhibition of a mammalian QC was only detected”.

Regarding `C[C@H](NC(=O)[C@@H](N)CCC(N)=O)C(=O)O` [H-Gln-Ala-OH] (H-Gln-Ala-OH), the Km in data set [3] is 232 ± 5 µM; in data set [3] (pH 8), 269 µM and 357 µM. Further, the kcat in data set [3] (0.05 M Tris-HCl, pH 8.0) was determined as 54.4 ± 0.5 s⁻¹; in data set [3] (setting [8]) it was 47.6 ± 0.6 s⁻¹; in data set [3] (Table 6, n.r. = not reactive) it was 57.2 ± 0.4 s⁻¹. Also, the Ki (as a rule, the equilibrium dissociation constant of an inhibitor or competing ligand from its target) in data set [3] (setting [8]) is “n.i”; in data set [3] (0.05 M Tris-HCl, pH 8.0) it was “n.i”. For the same molecule, the “Ki*” value in data set [3] (Table 6) is reported as “n.i”.

For H-QAAAA-NH2 [H-Gln-Ala-Ala-Ala-Ala-NH2], in data set [3] (Table 7, substrate length), the Km is 65 ± 3 µM and the kcat worked out at 60.5 ± 0.7 s⁻¹.

`Cn1cnc(CCN)c1` [1-methyl-4-(β-aminoethyl)-imidazole]: in data set [6], the “inhibition of human QC” value was “complete loss of inhibitory activity”. Further, in data set [6] (Table 4, n.i. = no inhibition), the Ki value entry is “n.i”.

For `NC(=O)CC[C@H](N)C(=O)O` [H-Gln-OH], in data set [3] (Table 6, n.r. = not reactive), the KM result was “n.r” and the kcat result is reported as “n.r”.

For the molecule `Cc1cc(=O)oc2cc(NC(=O)[C@@H](N)CCC(N)=O)ccc12` [H-Gln-AMC], in data set [3] (Table 6, n.r. = not reactive), the Km is 54 ± 2 µM and the kcat is 5.3 ± 0.1 s⁻¹.

As to `COC(=O)CC[C@H](N)C(=O)Nc1ccc2ccccc2c1` [H-Glu(OMe)-βNA, H-Glu(OMe)-β-naphthylamide], the “stability in Tris and Tricine buffers (non-enzymatically catalyzed cyclization)” value in data set [1] is “remarkable instability”. The “conversion by human QC” value in data set [2] was “Neither of these compounds were converted”.

As to `COC(=O)CC[C@H](N)C(=O)N[C@@H](Cc1ccccc1)C(=O)N[C@@H](CCCCN)C(=O)N[C@@H](CCCNC(=N)N)C(=O)N[C@@H](CC(C)C)C(=O)N[C@@H](C)C(N)=O` [H-Glu(OMe)-Phe-Lys-Arg-Leu-Ala-NH2] (H-E(OMe)FKRLA-NH2), in data set [2], the “inhibition of human QC by the peptide” value is “not inhibited”.

With `C[C@H](NC(=O)[C@@H](N)CCC(N)=O)C(N)=O` [H-Gln-Ala-NH2] (H-Gln-Ala-NH2), the kcat in data set [3] (Table 7, substrate length) worked out at 40.1 ± 0.9 s⁻¹.

In the case of `O=C(O)c1cccc(C(=O)O)n1` [dipicolinic acid], in data set [4], the “inactivation of human QC after extensive dialysis” value is “almost completely inactivated” and the “inhibition of human QC catalyzed substrate cyclization by chelators” value (shortened to “inhibition … by chelators”) is reported as “abolished”.

On to `NC(=O)CC[C@H](N)C(N)=O` [H-Gln-NH2], for which the Km in data set [3] (0.05 M Tris-HCl, pH 8.0) was 442 ± 30 µM. Further, the kcat in data set [3] (0.05 M Tris-HCl, pH 8.0) was found to be 12.8 ± 0.3 s⁻¹; in data set [3] (setting [8]), 12.2 ± 0.1 s⁻¹; in data set [3] (Table 6, n.r. = not reactive), 12.8 ± 0.5 s⁻¹. Also, the Ki result in data set [3] (setting [8]) is given as “n.i”; in data set [3] (0.05 M Tris-HCl, pH 8.0), “n.i”. For the same molecule, the “Ki*” value in data set [3] (Table 6) is given as “n.i”.

“QFRHDSGYEVHHQKLVFFA-NH2 [[Gln^3]Aβ3-21a]”: in data set [3] (setting [9]), the Km was found to be 162 ± 12 µM and the kcat came out at 62 ± 3 s⁻¹.

For the molecule `NC(=O)CC[C@H](N)C(=O)N[C@@H](CCC(=O)O)C(=O)O` [H-Gln-Glu-OH] (H-Gln-Glu-OH), the kcat in data set [3] (0.05 M Tris-HCl, pH 8.0) worked out at 21.4 ± 0.3 s⁻¹; in data set [3] (setting [8]), 18.9 ± 0.5 s⁻¹; in data set [3] (Table 6, n.r. = not reactive), 24.7 ± 0.2 s⁻¹. The Ki entry was “n.i” in data set [3] (setting [8]) and “n.i” in data set [3] (0.05 M Tris-HCl, pH 8.0). Also, the “Ki*” value in data set [3] (Table 6) is listed as “n.i”. Also, the Km in data set [3] (pH 8) was 373 µM and 607 µM.

In turn, `O=C1CNC(=S)N1CCCn1ccnc1` [3-[3-(1H-imidazol-1-yl)propyl]-2-thioxoimidazolidin-4-one] came in with a Ki in data set [6] (30° C., 0.05 M Tris-HCl pH 8.0, 5 mM EDTA) of 810 ± 10 nM.

`NC(=O)CC[C@H](NC(=O)[C@@H](N)CCC(N)=O)C(=O)O` [H-Gln-Gln-OH] (H-Gln-Gln-OH): the Km in data set [3] stood at 148 ± 5 µM; in data set [7] it was 175 ± 18 µM. Also, the “Ki*” value in data set [3] (Table 6) is “n.i”. Further, the kcat came to 20.7 ± 0.2 s⁻¹ in data set [3] (Table 6, n.r. = not reactive) and 21.3 ± 0.6 s⁻¹ in data set [7] (discontinuous method).

As for `NC(=O)CC[C@H](N)C(=O)N[C@@H](Cc1ccc(O)cc1)C(=O)O` [H-Gln-Tyr-OH] (H-Gln-Tyr-OH), the Km in data set [3] stood at 211 ± 5 µM. Moreover, the “Ki*” value in data set [3] (Table 6) was “n.i”. Further, the kcat in data set [3] (Table 6, n.r. = not reactive) is 94 ± 1 s⁻¹.

Consider `O=C(O)CN(CCN(CC(=O)O)CC(=O)O)CC(=O)O` [EDTA], for which the “inhibition … by chelators” value in data set [4] was “did not show remarkable inhibition”. In addition, the “inhibition of mammalian QC” value in data set [5] is given as “did not inhibit”.

With “H-Gln-cyclo(Nε-Lys-Arg-Pro-Ala-Gly-Phe) (H-QKRPAGF; lactam 2-C; SMILES C[C@@H]1NC(=O)[C@@H]2CCCN2C(=O)[C@H](CCCNC(=N)N)NC(=O)[C@@H](NC(=O)[C@@H](N)CCC(N)=O)CCCCNC(=O)[C@H](Cc2ccccc2)NC(=O)CNC1=O)”, in data set [3], the Km was found to be 240 ± 14 µM and the “kcat (turnover number)” value stood at 22.8 ± 0.6 s⁻¹.

Take `CC(C)(C)OC(=O)C(N)CCC(N)=O` (stereo not drawn) [H-Gln-OtBu]: the “Ki*” value in data set [3] (Table 6) is given as “n.i”. Also, in data set [3] (Table 6, n.r. = not reactive), the Km was determined as 1240 ± 74 µM and the kcat amounted to 6.7 ± 0.2 s⁻¹.

Consider “H-EFKRLA-NH2 [H-Glu-Phe-Lys-Arg-Leu-Ala-NH2]”, for which the “inhibition of human QC by the peptide” value in data set [2] is on record as “not inhibited”.

Turning to “H-βhomoGln-Phe-Lys-Arg-Leu-Ala-NH2 (H-[β3hQ]FKRLA-NH2; SMILES CC(C)C[C@H](NC(=O)[C@H](CCCNC(=N)N)NC(=O)[C@H](CCCCN)NC(=O)[C@H](Cc1ccccc1)NC(=O)C[C@@H](N)CCC(N)=O)C(=O)N[C@@H](C)C(N)=O)”, in data set [3], the Michaelis-Menten constant (Km) turned out to be 2500 ± 200 µM, the “fold reduced efficiency of cyclization compared to peptides of similar size with N-terminal glutaminyl residue” value is “approximately 1000 fold” and the “kcat (turnover number)” value is 3.5 ± 0.1 s⁻¹.

For `Oc1cccc2cccnc12` [8-hydroxyquinoline], the “inhibition … by chelators” value in data set [4] was “abolished”.

For “H-QAASAA-NH2 [H-Gln-Ala-Ala-Ser-Ala-Ala-NH2]”, in data set [3] (Table 7, substrate length), the Km was determined as 79 ± 6 µM and the catalytic constant (kcat) came to 55.3 ± 1.6 s⁻¹.

Regarding `CC(C)[C@H](NC(=O)[C@@H](N)CCC(N)=O)C(=O)O` [H-Gln-Val-OH] (H-Gln-Val-OH), the Km in data set [3] was found to be 196 ± 5 µM. Also, the “Ki*” value in data set [3] (Table 6) is “n.i”. Further, the kcat in data set [3] (Table 6, n.r. = not reactive) was determined as 17.2 ± 0.1 s⁻¹.

`C[C@H](NC(=O)[C@H](C)NC(=O)[C@@H](N)CCC(N)=O)C(N)=O` [H-Gln-Ala-Ala-NH2] (H-Gln-Ala-Ala-NH2): the kcat in data set [3] (Table 7, substrate length) turned out to be 76.3 ± 0.7 s⁻¹.

For the molecule `c1ccc(-n2ccnc2)cc1` [1-phenylimidazole], the “inhibition of human QC” value in data set [6] is “inactive under the experimental conditions”.
